# What was measured:
# Experiment in all cases: relative viability (nuclei count vs DMSO), 5 days (fraction); higher = more cells survive
# Tosedostat + Trametinib = compound: CC(C)C[C@@H](C(=O)N[C@H](C(=O)OC1CCCC1)c1ccccc1)[C@H](O)C(=O)NO [Tosedostat] + CC(=O)Nc1cccc(-n2c(=O)n(C3CC3)c(=O)c3c(Nc4ccc(I)cc4F)n(C)c(=O)c(C)c32)c1 [Trametinib] (partner 0.02 µM)
# Summary of the method: (§1)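 Lung cancer cell lines were pin-tool dosed in 1536-well plates on the day after seeding, with either a lone drug or a fixed anchor-drug dose plus five library-drug doses (not always all listed) in √10 steps. Nuclei were counted on 4× images after 5 days. Relative viability is the ratio of treated-well to vehicle-well nuclei counts, with each value a median of duplicate plates.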
# Tosedostat + Phenformin = compound: CC(C)C[C@@H](C(=O)N[C@H](C(=O)OC1CCCC1)c1ccccc1)[C@H](O)C(=O)NO [Tosedostat] + N=C(N)NC(=N)NCCc1ccccc1 [Phenformin] (partner 250 µM)
# Summary of the method: as §1
# Tosedostat + Decitabine = compound: CC(C)C[C@@H](C(=O)N[C@H](C(=O)OC1CCCC1)c1ccccc1)[C@H](O)C(=O)NO [Tosedostat] + Nc1ncn([C@H]2C[C@H](O)[C@@H](CO)O2)c(=O)n1 [Decitabine] (partner 2 µM)
# Summary of the method: as §1
# [1] = compound: CC1=NN=C(O1)C2=NN=C(C=C2)N3CCC(CC3)OC4=C(C=CC(=C4)F)Cl + CC1(C)CCC(c2ccc(Cl)cc2)=C(CN2CCN(c3ccc(C(=O)NS(=O)(=O)c4ccc(N[C@H](CCN5CCOCC5)CSc5ccccc5)c(S(=O)(=O)C(F)(F)F)c4)cc3)CC2)C1 [Navitoclax] (partner 0.5 µM)
# Summary of the method: as §1
Cell Line,relative viability (Tosedostat + Trametinib; first compound 0.02 µM),relative viability (Tosedostat + Trametinib; first compound 0.06325 µM),relative viability (Tosedostat + Trametinib; first compound 0.2 µM),relative viability (Tosedostat + Trametinib; first compound 0.6325 µM),relative viability (Tosedostat + Trametinib; first compound 2 µM),relative viability (Tosedostat + Phenformin; first compound 0.02 µM),relative viability (Tosedostat + Phenformin; first compound 0.06325 µM),relative viability (Tosedostat + Phenformin; first compound 0.2 µM),relative viability (Tosedostat + Phenformin; first compound 0.6325 µM),relative viability (Tosedostat + Phenformin; first compound 2 µM),relative viability (Tosedostat + Decitabine; first compound 0.02 µM),relative viability (Tosedostat + Decitabine; first compound 0.06325 µM),relative viability (Tosedostat + Decitabine; first compound 0.2 µM),relative viability (Tosedostat + Decitabine; first compound 0.6325 µM),relative viability (Tosedostat + Decitabine; first compound 2 µM),relative viability ([1]; first compound 0.253 µM),relative viability ([1]; first compound 0.8 µM),relative viability ([1]; first compound 2.53 µM),relative viability ([1]; first compound 8 µM)
NCI-H2405,0.652,0.657,0.79,0.699,0.614,0.398,0.407,0.397,0.368,0.359,0.772,0.733,0.712,0.603,0.657,0.902,0.722,0.784,0.83
NCI-H2126,0.493,0.59,0.568,0.584,0.481,0.492,0.535,0.477,0.489,0.462,0.533,0.583,0.591,0.478,0.462,0.785,0.759,0.747,0.645
NCI-H460,0.157,0.197,0.204,0.181,0.217,0.551,0.473,0.505,0.426,0.48,0.514,0.466,0.457,0.468,0.528,0.429,0.42,0.45,0.392
NCI-H1993,0.501,0.61,0.535,0.498,0.504,0.514,0.507,0.459,0.497,0.499,0.487,0.673,0.576,0.511,0.525,0.804,0.824,0.876,0.878
HCC-78,0.729,0.722,0.664,0.795,0.659,0.644,0.68,0.637,0.671,0.752,0.634,0.706,0.732,0.75,0.658,0.436,0.43,0.544,0.525
LU99A,0.51,0.47,0.567,0.544,0.47,0.925,0.903,0.821,0.641,0.547,0.906,0.769,0.909,0.744,0.693,0.836,0.723,0.858,0.582
NCI-H520,0.731,0.733,0.645,0.699,0.67,0.391,0.593,0.585,0.712,0.782,0.524,0.439,0.414,0.459,0.495,0.926,0.566,1.05,1.09
HCC-827,0.545,0.571,0.552,0.505,0.518,0.401,0.443,0.397,0.355,0.301,0.317,0.331,0.289,0.26,0.314,0.397,0.291,0.399,0.328
NCI-H1975,0.35,0.401,0.453,0.359,0.344,0.4,0.401,0.412,0.342,0.375,0.396,0.425,0.4,0.274,0.407,,0.82,0.838,0.882
NCI-H2085,,0.436,0.677,0.403,0.637,0.55,0.646,0.713,0.673,0.682,,0.548,0.495,0.503,0.43,0.9,0.919,0.908,0.698
NCI-H1792,0.4,0.417,0.4,0.42,0.479,0.243,0.472,0.445,0.404,0.31,0.62,0.506,0.52,0.465,0.525,0.4,0.409,0.409,0.482
NCI-H1734,0.778,0.666,0.664,0.502,0.572,0.453,0.399,0.393,0.372,0.345,0.487,0.509,0.461,0.418,0.446,0.826,0.682,0.843,0.754
LCLC-97TM1,0.19,0.202,0.232,0.177,0.161,0.402,0.433,0.445,0.403,0.439,0.186,0.234,0.212,0.207,0.184,0.623,,0.67,0.447
SK-LU-1,0.648,0.529,0.597,0.447,0.511,0.598,0.535,0.52,0.428,0.525,0.624,0.651,0.563,0.471,0.454,0.765,0.957,0.706,0.531
HOP-62,0.41,0.442,0.404,0.495,0.451,0.663,0.615,0.685,0.569,0.437,0.227,0.203,0.258,0.159,0.186,0.834,0.542,0.816,0.863
NCI-H23,0.426,0.329,0.359,0.321,0.284,0.782,0.802,0.754,0.707,0.404,0.309,0.315,0.323,0.286,0.306,0.808,,0.71,0.722

# — the supplement of paper PMC10307832
